Results on twelve compounds are retold here after ChEMBL document CHEMBL4619750, “Benzoxepinones: A new isoform-selective class of tumor associated carbonic anhydrase inhibitors” (Bioorg Med Chem, 2020).

What is called Ki is the equilibrium dissociation constant of an inhibitor or competing ligand from its target.

One test concerns the target Carbonic anhydrase 1 (Homo sapiens, UniProt P00915). The experiment in a line: Inhibition of human carbonic anhydrase 1 assessed as inhibitory constant incubated for 6 hrs by stopped-flow CO2 hydration assay.
The next test concerns the target Carbonic anhydrase 9 (Homo sapiens, UniProt Q16790). The test is described as follows: Inhibition of human carbonic anhydrase 9 assessed as inhibitory constant incubated for 6 hrs by stopped-flow CO2 hydration assay.
In a further test the target is Carbonic anhydrase 2 (Homo sapiens, UniProt P00918). The test is described as follows: Inhibition of human carbonic anhydrase 2 assessed as inhibitory constant incubated for 6 hrs by stopped-flow CO2 hydration assay.

Each structure is given as a SMILES string.

Carbonic anhydrase 1, sequence (P00915 whole entry): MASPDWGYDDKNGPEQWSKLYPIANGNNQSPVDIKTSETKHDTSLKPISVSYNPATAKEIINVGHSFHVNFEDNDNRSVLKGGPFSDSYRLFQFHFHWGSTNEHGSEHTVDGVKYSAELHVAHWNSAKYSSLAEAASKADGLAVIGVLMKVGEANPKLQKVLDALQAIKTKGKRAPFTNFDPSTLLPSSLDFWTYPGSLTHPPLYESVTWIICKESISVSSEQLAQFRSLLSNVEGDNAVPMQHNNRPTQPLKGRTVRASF

For `COC(=O)C1=Cc2cc(C(=O)OC)ccc2OC(=O)C1`, the Ki was more than 100 µM on Carbonic anhydrase 1, 0.0393 µM at Carbonic anhydrase 9 and more than 100 µM at Carbonic anhydrase 2.
Turning to `CCN(CC)c1ccc2c(c1)OC(=O)CC(C(=O)OC)=C2`, the Ki on Carbonic anhydrase 1 was more than 100 µM; at Carbonic anhydrase 9 it was 0.0934 µM; at Carbonic anhydrase 2 it was more than 100 µM.
Regarding `COC(=O)C1=Cc2ccc(Cl)cc2OC(=O)C1`, the Ki on Carbonic anhydrase 1 is more than 100 µM; at Carbonic anhydrase 9, 0.078 µM; on Carbonic anhydrase 2 it was more than 100 µM.
Take `COC(=O)C1=Cc2cc(C)ccc2OC(=O)C1`: the Ki at Carbonic anhydrase 1 was more than 100 µM; at Carbonic anhydrase 9, 0.0717 µM; on Carbonic anhydrase 2, more than 100 µM.
For the compound `COC(=O)C1=Cc2ccccc2OC(=O)C1`, the Ki at Carbonic anhydrase 1 is more than 100 µM; at Carbonic anhydrase 9, 0.254 µM; on Carbonic anhydrase 2 it was more than 100 µM.
In the case of `COC(=O)C1=Cc2ccc(C)cc2OC(=O)C1`, the results for the Ki on Carbonic anhydrase 1, on Carbonic anhydrase 9 and on Carbonic anhydrase 2 were more than 100 µM, 0.171 µM and more than 100 µM, respectively.
Turning to `COC(=O)C1=Cc2ccc(OC)cc2OC(=O)C1`, the Ki on Carbonic anhydrase 1 was more than 100 µM; at Carbonic anhydrase 9, 0.0838 µM; at Carbonic anhydrase 2, more than 100 µM.
`COC(=O)C1=Cc2ccc3ccccc3c2OC(=O)C1`: the Ki was more than 100 µM at Carbonic anhydrase 1, 0.303 µM on Carbonic anhydrase 9 and more than 100 µM at Carbonic anhydrase 2.
Turning to `COC(=O)C1=Cc2cc(Cl)ccc2OC(=O)C1`, the Ki at Carbonic anhydrase 1 was more than 100 µM; on Carbonic anhydrase 9 it was 0.02 µM; on Carbonic anhydrase 2 it was 76.2 µM.
`COC(=O)C1=Cc2cccc(OC)c2OC(=O)C1`: the Ki was more than 100 µM on Carbonic anhydrase 1, 0.0463 µM on Carbonic anhydrase 9 and more than 100 µM on Carbonic anhydrase 2.
For the compound `COC(=O)C1=Cc2cc(C(C)(C)C)ccc2OC(=O)C1`, the Ki at Carbonic anhydrase 1 was more than 100 µM; at Carbonic anhydrase 9, 0.0373 µM; at Carbonic anhydrase 2 it was 85.7 µM.
For the compound `COC(=O)C1=Cc2cc(OC)ccc2OC(=O)C1`, the Ki at Carbonic anhydrase 1 is more than 100 µM; on Carbonic anhydrase 9, 0.0402 µM; at Carbonic anhydrase 2, 66.8 µM.
